Article PMC11207335, “In Vitro Metabolism and Transport Characteristics of Zastaprazan” (Pharmaceutics, 2024)

Columns and labels:
BCRP = target: T1, BCRP (Homo sapiens, UniProt Q9UNQ0); test: Permeability in LLC-PK1-BCRP cells; format: in vitro ADME; conditions: for Substrate: BCRP
T1 construct: host or cells: LLC-PK1 (porcine kidney cells)
T1 sequence (Q9UNQ0 1-655): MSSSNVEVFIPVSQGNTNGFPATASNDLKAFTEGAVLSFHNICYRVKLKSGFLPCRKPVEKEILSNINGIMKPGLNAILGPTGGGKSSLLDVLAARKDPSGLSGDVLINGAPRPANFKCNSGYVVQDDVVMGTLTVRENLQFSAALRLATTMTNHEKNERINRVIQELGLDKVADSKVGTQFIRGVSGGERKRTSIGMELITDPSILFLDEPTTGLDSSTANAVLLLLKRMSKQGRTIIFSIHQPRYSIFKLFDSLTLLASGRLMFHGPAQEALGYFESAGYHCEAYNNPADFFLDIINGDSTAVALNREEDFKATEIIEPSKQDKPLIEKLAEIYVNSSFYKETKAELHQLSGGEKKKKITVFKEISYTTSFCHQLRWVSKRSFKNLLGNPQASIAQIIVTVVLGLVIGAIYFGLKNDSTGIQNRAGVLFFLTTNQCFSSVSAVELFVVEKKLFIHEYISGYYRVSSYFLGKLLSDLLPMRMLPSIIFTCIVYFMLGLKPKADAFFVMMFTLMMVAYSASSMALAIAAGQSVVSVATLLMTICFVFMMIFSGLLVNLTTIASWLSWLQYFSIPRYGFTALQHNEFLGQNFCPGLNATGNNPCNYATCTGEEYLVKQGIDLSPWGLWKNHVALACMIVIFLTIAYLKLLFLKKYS
Experimental: LLC-PK1-P-gp or BCRP cells were seeded on collagen-coated 24-transwell membranes at a density of 2.5 × 10^5 cells/mL and maintained at 37 °C in a humidified atmosphere with 5% CO2/95% air for 5 days in Medium 199 supplemented with 10% […], 50 μg/mL of gentamycin, and 50 μg/mL of hygromycin. The culture medium was replaced every other day. On the day of the experiment, the growth medium was discarded, and the attached cells were washed with prewarmed HBSS (pH 7.4) and preincubated with HBSS for 20 min at 37 °C. […] Aliquots (0.1 mL) in the apical side were transferred to clean tubes every 15 min for 1 h and replaced with an equal volume of fresh HBSS.
LLC-PK1-P-gp or BCRP cells were seeded on collagen-coated 24-transwell membranes at a density of 2.5 × 10^5 cells/mL and cultured for 5 days. The growth medium was discarded on the day of the experiment, and the attached cells were washed with prewarmed HBSS (pH 7.4) and preincubated with HBSS for 20 min at 37 °C. […] Aliquots (0.1 mL) in the apical side were transferred to clean tubes every 15 min for 1 h and replaced with an equal volume of fresh HBSS. Aliquots (30 μL) of each sample were vortex-mixed with 90 μL of IS solution for 1 min, and then centrifugation was performed at 13,500 rpm at 4 °C for 5 min. Aliquots (5 μL) of the supernatant were injected into the LC-MS/MS for analysis.
The permeability (Papp) was calculated from the following equation [23, 24]: Papp(cm/s)=transport ratenmol/s/JP−1366 or M1 concentration (μM)×surface area of membrane (cm^2)

Cl^- channel = test: BioPrint profiling, Cl- channel; conditions: BioPrint profiling (Eurofins CEREP)
HEK293-mock cells = test: Uptake into HEK293-mock cells; conditions: 6 μM
OCT2 = target: T2, OCT2 (Homo sapiens, UniProt O15244); test: Uptake into HEK293 cells expressing OCT2; conditions: for Uptake Rate / Fold-Change: 6 μM; for Substrate: OCT2; for Fold-Change: vs HEK293-mock
T2 sequence (O15244 1-555): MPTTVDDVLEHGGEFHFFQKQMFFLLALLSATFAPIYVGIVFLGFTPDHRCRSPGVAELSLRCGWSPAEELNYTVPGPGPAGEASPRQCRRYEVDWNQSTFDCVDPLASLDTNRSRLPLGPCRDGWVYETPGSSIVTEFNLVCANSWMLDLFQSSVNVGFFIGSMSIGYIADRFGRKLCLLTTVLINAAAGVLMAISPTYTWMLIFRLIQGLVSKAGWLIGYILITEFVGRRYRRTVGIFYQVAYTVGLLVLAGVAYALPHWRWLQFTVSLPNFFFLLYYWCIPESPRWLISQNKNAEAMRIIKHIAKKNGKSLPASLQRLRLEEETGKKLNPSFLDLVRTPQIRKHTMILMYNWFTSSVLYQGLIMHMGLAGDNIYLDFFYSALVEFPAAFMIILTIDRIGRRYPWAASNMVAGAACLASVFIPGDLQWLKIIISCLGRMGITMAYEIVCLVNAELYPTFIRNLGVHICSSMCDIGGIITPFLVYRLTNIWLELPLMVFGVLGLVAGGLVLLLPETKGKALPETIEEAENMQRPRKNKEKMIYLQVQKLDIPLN

MATE1 = target: T3, MATE1 (Homo sapiens, UniProt Q96FL8); test: Uptake into HEK293 cells expressing MATE1; conditions: for Uptake Rate / Fold-Change: 6 μM; for Substrate: MATE1; for Fold-Change: vs HEK293-mock
T3 sequence (Q96FL8 1-570): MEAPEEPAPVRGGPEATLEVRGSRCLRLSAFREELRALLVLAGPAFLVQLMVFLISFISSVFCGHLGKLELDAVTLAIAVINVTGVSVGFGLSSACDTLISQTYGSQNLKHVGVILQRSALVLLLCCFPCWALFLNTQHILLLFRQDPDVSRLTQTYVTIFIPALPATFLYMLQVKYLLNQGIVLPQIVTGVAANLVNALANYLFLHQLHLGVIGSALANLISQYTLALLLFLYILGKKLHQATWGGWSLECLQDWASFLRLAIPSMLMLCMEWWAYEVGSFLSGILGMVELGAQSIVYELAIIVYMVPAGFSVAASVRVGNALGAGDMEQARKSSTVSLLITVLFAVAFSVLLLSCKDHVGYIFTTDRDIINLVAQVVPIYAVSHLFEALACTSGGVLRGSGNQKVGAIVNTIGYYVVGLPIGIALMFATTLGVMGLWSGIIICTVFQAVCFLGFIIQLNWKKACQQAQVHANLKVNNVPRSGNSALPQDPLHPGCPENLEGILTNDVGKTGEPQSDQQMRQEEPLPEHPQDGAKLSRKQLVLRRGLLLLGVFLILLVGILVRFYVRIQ

[1] = pig, pH 7.4, with Ko134 1 μM, LLC-PK1-BCRP, Ko134 1 μM
[2] = pig, pH 7.4, LLC-PK1-BCRP, Control
[3] = HEK293-MATE1, cimetidine 100 μM

| Substrate (BCRP) | Papp A→B at 1 h, 4 µM (BCRP; [1]) [×10⁻⁶ cm/s] | Papp B→A at 1 h, 4 µM (BCRP; [1]) [×10⁻⁶ cm/s] | Papp A→B at 1 h, 4 µM (BCRP; [2]) [×10⁻⁶ cm/s] | Papp B→A at 1 h, 4 µM (BCRP; [2]) [×10⁻⁶ cm/s] | Uptake Rate (HEK293-mock cells; cimetidine 100 μM) [pmol/min/10^5 Cells] | Uptake Rate (HEK293-mock cells; control) [pmol/min/10^5 Cells] | Uptake Rate (HEK293-mock cells; probenecid 20 μM) [pmol/min/10^5 Cells] | Uptake Rate (HEK293-mock cells; rifampin 20 μM) [pmol/min/10^5 Cells] | Uptake Rate (OCT2; HEK293-OCT2, cimetidine 100 μM) [pmol/min/10^5 Cells] | Uptake Rate (OCT2; HEK293-OCT2, control) [pmol/min/10^5 Cells] | Substrate (OCT2) | Uptake Rate (MATE1; [3]) [pmol/min/10^5 Cells] | Uptake Rate (MATE1; HEK293-MATE1, control) [pmol/min/10^5 Cells] | Substrate (MATE1) | SMILES | further results |
| --- | --- | --- | --- | --- | --- | --- | --- | --- | --- | --- | --- | --- | --- | --- | --- | --- |
| No | 13.6 ± 0.54 | 22.6 ± 0.47 | 14.8 ± 1.23 | 20.5 ± 3.95 | 55.35 ± 2.24 | 51.53 ± 3.16 | 54.22 ± 1.90 | 57.80 ± 0.89 | 49.28 ± 4.50 | 51.71 ± 1.36 | No | 78.57 ± 5.38 | 65.32 ± 4.13 | No | Cc1cccc(C)c1CNc1cc(C(=O)N2CCC2)cn2c(C)c(C)nc12 [JP-1366, 1-azetidinyl(8-(((2,6-dimethylphenyl)methyl)amino)-2,3-dimethylimidazo(1,2-a)pyridin-6-yl)methanone] | IC50 (Cl^- channel): 910 nM |
| No | 32 ± 2.84 | 47.3 ± 1.39 | 31.7 ± 3.39 | 33.8 ± 3.45 | 55.35 ± 2.24 | 51.53 ± 3.16 | 54.22 ± 1.90 | 57.80 ± 0.89 | 49.28 ± 4.50 | 51.71 ± 1.36 | No | 78.57 ± 5.38 | 65.32 ± 4.13 | No | Cc1cccc(CO)c1CNc1cc(C(=O)N2CCC2)cn2c(C)c(C)nc12 [M1, azetidin-1-yl(8-((2-(hydroxymethyl)-6-methyl-benzyl)amino)-2,3-dimethylimidazo[1,2-a]pyridin-6-yl)methanone] | efflux ratio at 1 h (BCRP; pig, pH 7.4, LLC-PK1-BCRP, concentration range of 0.3–85 μM, read-out: ER): 1.1 to 1.7; Fold-Change (HEK293-mock cells; cimetidine 100 μM): 1.1; Fold-Change (HEK293-mock cells; control): 1.0; Fold-Change (HEK293-mock cells; probenecid 20 μM): 1.1; Fold-Change (HEK293-mock cells; rifampin 20 μM): 1.1; Fold-Change (OCT2; HEK293-OCT2, cimetidine 100 μM): 1.0; Fold-Change (OCT2; HEK293-OCT2, control): 1.0; Fold-Change (MATE1; [3]): 1.5; Fold-Change (MATE1; HEK293-MATE1, control): 1.3 |
